pKi: −log10 of the molar value.
Assays:
[1] = molecular target: T1, Synaptic vesicular amine transporter (Rattus norvegicus, UniProt Q01827); test: Displacement of [18F](+)-FP-DTBZ from VMAT2 in rat striatal homogenate after 60 mins by gamma counting
[2] = molecular target: T1, Synaptic vesicular amine transporter; test: Displacement of [125I]-iodovinyl-TBZ from VMAT2 in rat striatal homogenate after 60 mins by gamma counting
Nucleic Acid = test: Ratio of drug uptake in striatum to cerebellum in ICR mouse at 10 to 20 uCi, iv by gamma counting; format: ADME, organism-based; conditions: in vivo

T1 sequence (Q01827 whole entry): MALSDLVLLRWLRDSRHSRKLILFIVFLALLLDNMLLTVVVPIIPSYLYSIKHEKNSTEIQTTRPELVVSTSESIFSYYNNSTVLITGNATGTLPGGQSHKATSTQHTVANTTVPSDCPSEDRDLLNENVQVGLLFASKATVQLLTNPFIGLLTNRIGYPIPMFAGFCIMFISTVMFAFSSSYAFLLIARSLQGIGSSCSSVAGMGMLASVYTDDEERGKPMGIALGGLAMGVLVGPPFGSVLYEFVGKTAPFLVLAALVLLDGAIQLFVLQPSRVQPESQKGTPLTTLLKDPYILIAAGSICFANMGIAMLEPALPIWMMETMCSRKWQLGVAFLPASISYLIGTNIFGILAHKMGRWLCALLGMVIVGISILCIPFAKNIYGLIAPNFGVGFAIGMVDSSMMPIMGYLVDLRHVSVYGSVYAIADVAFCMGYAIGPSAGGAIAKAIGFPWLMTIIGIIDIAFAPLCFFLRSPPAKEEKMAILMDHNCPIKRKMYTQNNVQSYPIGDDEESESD

pKi [2] | SMILES | also measured
– | C=CCC1CN2CCc3cc(OC)c(OC)cc3C2C[C@H]1O (mixture of isomers) | pKi [1]: 6.60
7.57 | COc1cc2c(cc1OC)C1C[C@@H](O)C(CC3CCC3)CN1CC2 (mixture of isomers) | –
6.64 | COc1cc2c(cc1OC)C1C[C@@H](O)C(CC3CCCC3)CN1CC2 (mixture of isomers) | –
6.86 | COc1cc2c(cc1OC)C1C[C@@H](O)C(CC3CCCCC3)CN1CC2 (mixture of isomers) | –
– | C/C=C/C1CN2CCc3cc(OCCCF)c(OC)cc3C2C[C@H]1O (mixture of isomers) | pKi [1]: 7.65
– | COc1cc2c(cc1OCCC[18F])CCN1C[C@@H](CC(C)C)[C@H](O)C[C@H]21 [FLORBENAZINE F 18] | Ratio (Nucleic Acid): 4.51
10.00 | COc1cc2c(cc1OCCCF)CCN1C[C@@H](CC(C)C)[C@H](O)C[C@H]21 [FLORBENAZINE] | –
